Test results published in patent publication US12527977B2, “Combined neuromodulation techniques” (GE Precision Healthcare LLC, priority 2021, dated 2026).

How the values were obtained:
[1] = tested on: Zucker diabetic fatty (ZDF) rat model; experiment: Chronic non-fasted blood glucose monitoring in ZDF rats, drug combined with pFUS ultrasound stimulation; type: in vivo
From the text: The following relates to the diabetic animal model used and the method of ultrasound neuromodulation. • Animal Model of Type 2 Diabetes • Zucker diabetic fatty (ZDF) rat model Adult male ZDF rats (Charles River, Kingston, NY USA) were ordered for arrival prior to 8 weeks of age. All animals were maintained on a high caloric rodent chow (Purina 5008), provided, with water, provided ad libitum. […] All procedures performed in accordance with the National Institutes of Health (NIH) Guidelines under protocols approved by the Institutional Animal Care and Use Committee (IACUC) of GE Global Research. ZDF animals were acclimated by daily handling to prevent stress-induced changes in circulating glucose. […] All rats were anesthetized at 1-4% isoflurane at 1 L/min O2. Rats were then placed on a water circulating warming pad, with a rectal thermometer probe to maintain body temperature. The abdominal area was completely shaved and the hair fully removed with Nair to allow for later stimulation of nerve plexus located in either the hepatic or GI systems. […] These locations were then marked with a permanent marker and a ultrasound stimulation probe was placed on the target area. The prototype pFUS device then delivered 3 minutes of stimulation (1.1 MHz, 150 burst cycles, 500 us burst period) Blood glucose levels of the rats were monitored on a daily basis for chronic studies and at 5-minute intervals for acute and OGTT studies. In chronic studies additional blood samples were collected on a weekly basis for the analysis of circulating markers. A final terminal blood sample was collected at the time of euthanization and used for the evaluation of circulating insulin levels. For the prototype pFUS device, stimulus (1.1 MHZ, 200 mV per pulse, 150 burst cycles, 500 us burst period) was applied to each region for 3 minutes per target. For example, pFUS was initially applied to the hepatic portal region for 3 minutes. […] There was an about 5 minute delay period in between stimulation of the first and second, or second and third anatomical target sites. Blood samples obtained from the tail vein were used to assess daily glucose (for chronic studies) and 5-minute glucose intervals (for acute studies) using a Freestyle Freedom Lite (Abbott Diabetes Inc., Alameda, CA, US). The Freestyle Freedom Light meter using a small blood 15 volume (0.3 uL) and as such no additional fluids were needed to recover total volume following blood sampling. Combination of pharmaceutical intervention and pFUS therapy was tested to determine the effects of dual therapies on therapeutic window as well as duration of efficacy. […] This dosing regimen (timing) is identical to that used in humans with dosing to occur prior to both morning and evening mealtimes. […]

[2] = tested on: Zucker diabetic fatty (ZDF) rat model; details: previously shown treatment, cited from earlier work
[3] = low dose metformin alone cohort, FIG. 9 data 304

Row | Molecule | remission after ultrasound cessation ([1]; low dose metformin added to dual-site stimulation (7 days ultrasound, then stopped), FIG. 9 data 302) | blood glucose [1, 3] | effectiveness (absolute decrease in blood glucose or length of time spent below 200 mg/dL) versus liraglutide alone [1, 3] | blood glucose reduction duration versus single site plus liraglutide cohort ([1]; low dose metformin plus single site (hepatoportal plexus) stimulus, FIG. 9 data 306) | effect in ZDF animals far along in disease progression ([2]; FGF1 icv, animals with >300 mg/dL average glucose) | remission in the ZDF model ([2]; FGF1 injection into the intracerebroventricular (icv) space) [week]
1 | CN(C)C(=N)N=C(N)N [Metformin] | did not result in extended remission | temporary drop below 200 mg/dL | not as effective as the liraglutide alone cohort | not as effective | – | –
2 | FGF1: FGF1 injected into the intracerebroventricular space; previously reported treatment | – | – | – | – | failed to work | 4
